Reference: article PMC7044277 (Nature Communications, 2020)
Values joined by “and” are separate entries in the source; they are usually repeats but may differ in a detail not shown here. Equal values may be shown once.

Key:
Format in all cases: cell-based
[1] = biological target: T1, DRD2 S1935.42G (Homo sapiens, UniProt P14416, S193G); test: Gαi/o-mediated cAMP inhibition (GloSensor), mutant; conditions: DRD2 Ser5.42Gly; G-protein assay
T1 construct: expressed in transfected cells; host or cells: HEK293T (ATCC CRL-11268)

[2] = biological target: T2, DRD2 S1945.43G (Homo sapiens, UniProt P14416, S194G); test: Gαi/o-mediated cAMP inhibition (GloSensor), mutant; conditions: DRD2 Ser5.43Gly; G-protein assay
T2 construct: expressed in transfected cells; host or cells: HEK293T (ATCC CRL-11268)

[3] = biological target: T3, DRD2 S1975.46G (Homo sapiens, UniProt P14416, S197G); test: Gαi/o-mediated cAMP inhibition (GloSensor), mutant; conditions: DRD2 Ser197^5.46Gly; G-protein assay
T3 construct: expressed in transfected cells; host or cells: HEK293T (ATCC CRL-11268)

[4] = biological target: DRD1 (Homo sapiens, UniProt P21728); test: β-arrestin2 recruitment (Tango); conditions: agonist mode
[5] = biological target: 5HT1D (Homo sapiens, UniProt P28221); test: β-arrestin2 recruitment (Tango); conditions: agonist activity only at high concentrations
[6] = biological target: T4, 5HT2C (Homo sapiens, UniProt P28335); test: β-arrestin2 recruitment (Tango); conditions: Fig_S10m; for β-arrestin2 recruitment response in presence of serotonin (replicate values): +10μM serotonin; for β-arrestin2 recruitment response (dose-response source data, replicate values): drug alone
T4 sequence (P28335 33-458): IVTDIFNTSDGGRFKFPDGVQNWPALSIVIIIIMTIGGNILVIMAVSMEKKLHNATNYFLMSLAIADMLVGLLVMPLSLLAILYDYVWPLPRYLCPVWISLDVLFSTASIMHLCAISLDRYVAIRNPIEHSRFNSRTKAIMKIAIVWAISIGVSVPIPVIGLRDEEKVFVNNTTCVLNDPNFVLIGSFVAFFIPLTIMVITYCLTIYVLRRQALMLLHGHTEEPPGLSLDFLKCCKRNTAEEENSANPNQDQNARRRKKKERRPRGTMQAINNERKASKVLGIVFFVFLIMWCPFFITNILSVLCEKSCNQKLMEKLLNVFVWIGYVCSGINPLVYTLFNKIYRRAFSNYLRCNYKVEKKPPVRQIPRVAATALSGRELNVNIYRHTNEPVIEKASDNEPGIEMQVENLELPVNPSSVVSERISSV

Sequence of DRD1 (P21728 whole entry): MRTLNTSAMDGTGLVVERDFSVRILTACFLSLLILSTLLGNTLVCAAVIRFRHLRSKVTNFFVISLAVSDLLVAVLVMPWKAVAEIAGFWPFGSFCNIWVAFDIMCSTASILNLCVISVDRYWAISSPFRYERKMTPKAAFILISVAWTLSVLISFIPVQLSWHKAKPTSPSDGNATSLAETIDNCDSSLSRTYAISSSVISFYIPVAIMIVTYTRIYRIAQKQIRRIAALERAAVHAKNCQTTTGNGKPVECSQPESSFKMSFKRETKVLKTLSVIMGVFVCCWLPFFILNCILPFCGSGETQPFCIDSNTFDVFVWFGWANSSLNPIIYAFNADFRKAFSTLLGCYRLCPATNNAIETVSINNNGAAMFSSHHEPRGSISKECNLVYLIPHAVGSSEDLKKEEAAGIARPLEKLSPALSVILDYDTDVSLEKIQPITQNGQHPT
Sequence of 5HT1D (P28221 whole entry): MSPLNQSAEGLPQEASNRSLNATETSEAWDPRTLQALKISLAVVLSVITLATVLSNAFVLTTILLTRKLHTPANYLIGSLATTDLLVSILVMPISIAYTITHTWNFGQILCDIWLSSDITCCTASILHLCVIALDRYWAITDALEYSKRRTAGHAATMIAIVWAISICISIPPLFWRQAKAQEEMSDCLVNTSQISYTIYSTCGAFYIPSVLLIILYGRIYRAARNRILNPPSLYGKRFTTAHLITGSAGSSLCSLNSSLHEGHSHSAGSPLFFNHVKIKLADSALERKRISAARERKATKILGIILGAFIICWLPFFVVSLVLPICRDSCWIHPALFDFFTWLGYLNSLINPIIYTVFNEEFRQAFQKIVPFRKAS
T2 sequence (P14416 whole entry S194G): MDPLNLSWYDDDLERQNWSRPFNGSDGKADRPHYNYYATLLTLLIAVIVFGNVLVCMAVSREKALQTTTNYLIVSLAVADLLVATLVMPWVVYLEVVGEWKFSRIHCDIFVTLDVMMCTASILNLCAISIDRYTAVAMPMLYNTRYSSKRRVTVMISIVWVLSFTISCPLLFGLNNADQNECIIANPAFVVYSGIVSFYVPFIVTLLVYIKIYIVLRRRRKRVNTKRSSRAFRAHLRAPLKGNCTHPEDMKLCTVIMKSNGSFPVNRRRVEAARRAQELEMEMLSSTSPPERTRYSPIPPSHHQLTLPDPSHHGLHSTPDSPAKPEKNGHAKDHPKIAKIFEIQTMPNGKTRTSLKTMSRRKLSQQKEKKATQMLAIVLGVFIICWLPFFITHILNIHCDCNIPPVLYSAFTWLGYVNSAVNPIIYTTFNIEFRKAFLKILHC
T1 sequence (P14416 whole entry S193G): as the sequence (P14416 whole entry S194G) above, with S193G, G194S counted along it
T3 sequence (P14416 whole entry S197G): as the sequence (P14416 whole entry S194G) above, with G194S, S197G counted along it

SMILES: CCOc1cccc2cc([C@@H](C)NCC3(O)CCCCC3)oc12 [O4RE6]
- agonism after serine to glycine substitution [1]: impaired
- agonism after serine to glycine substitution [2]: impaired
- agonism after serine to glycine substitution [3]: impaired
- Fig_S10d concentration-response source data, compound alone (replicates) ([4]; Log[Drug] -6.52): 1.905
- Fig_S10d concentration-response source data, compound alone (replicates) ([4]; Log[Drug] -7): 1.064 and 2.282 and -0.6391 and 0.289 and -0.08278 and 0.4865 and -0.4054 and 1.577 and 0.01217
- Fig_S10d concentration-response source data, compound alone (replicates) ([4]; Log[Drug] -7.52): 1.077 and 0.9051 and -0.1158 and 0.04295 and -0.04452 and 0.1062 and 0.53 and 4.578 and 0.07397
- Fig_S10d concentration-response source data, compound alone (replicates) ([4]; Log[Drug] -8): 0.3903 and 0.04289 and 0.7249 and 0.1109 and 0.1132 and -0.0164 and 0.2378 and 0.7481 and 0.5777
- Fig_S10d concentration-response source data, compound alone (replicates) ([4]; Log[Drug] -8.52): 1.047 and 2.106 and 1.068 and 0.04686 and -0.2007 and -0.1148 and -0.01592 and 0.004682 and 0.05431
- Fig_S10d concentration-response source data, compound alone (replicates) ([4]; Log[Drug] -9): 0.3903 and 1.591 and 1.077 and 0.9231 and 0.04452 and 0.3311 and -0.4785 and 2.978 and 0.1554
- Fig_S10d concentration-response source data, compound alone (replicates) ([4]; Log[Drug] -9.52): 0.3689 and -0.1244 and 0.7292 and 0.2936 and 0.3303 and 0.01406 and 0.5824 and 0.412 and 0.617
- Fig_S10d concentration-response source data, compound alone (replicates) ([4]; Log[Drug] -10): 7.429 and 0.8836 and 0.03432 and 0.6724 and -0.1109 and 0.4569 and -0.09176 and 0.9157 and -0.1386
- Fig_S10d concentration-response source data, compound alone (replicates) ([4]; Log[Drug] -10.52): -0.3217 and 1.253 and 1.072 and 0.2647 and -0.2624 and -0.04452 and -0.9541 and 0.426 and 0.1283
- Fig_S10d concentration-response source data, compound alone (replicates) ([4]; Log[Drug] -11): 0.05147 and 1.072 and 2.964 and 0.7974 and -0.07497 and -0.2936 and -0.2444 and 1.441 and -0.4363
- Fig_S10d concentration-response source data, compound alone (replicates) ([4]; Log[Drug] -11.52): 1.244 and 0.2102 and -0.6649 and -0.01562 and -0.1695 and 0.02187 and -0.1648 and 0.6545 and -0.5449
- Fig_S10d concentration-response source data, compound alone (replicates) ([4]; Log[Drug] -12): 0.04289 and 4.504 and 6.396 and -0.1351 and 0.3358 and -0.1991 and -0.1554 and -0.2734 and -0.1919
- concentration at which the receptor is activated [5]: over 1 μM
- β-arrestin2 recruitment response in presence of serotonin (replicate values) ([6]; Log[Drug] -5): 58.3147 and 46.4286 and 67.806 and 58.4132 and 79.4697 and 68.0017 and 93.0961 and 72.2806 and 97.8926
- β-arrestin2 recruitment response (dose-response source data, replicate values) ([6]; Log[Drug] -5): 0.7157 and -0.5401 and -1.168 and 2.766 and 0.7235 and 1.739 and 11.316 and 1.077 and 3.549
- β-arrestin2 recruitment response in presence of serotonin (replicate values) ([6]; Log[Drug] -5.52): 54.8113 and 63.0121 and 49.2529 and 68.8758 and 64.9488 and 66.315 and 83.0753 and 67.6275 and 72.9664
- β-arrestin2 recruitment response (dose-response source data, replicate values) ([6]; Log[Drug] -5.52): 1.749 and 2.795 and -1.663 and 3.765 and 1.711 and -0.08172 and 1.356 and 7.494 and -2.02
- β-arrestin2 recruitment response in presence of serotonin (replicate values) ([6]; Log[Drug] -6): 55.8065 and 61.1873 and 58.6737 and 61.6241 and 75.6253 and 78.232 and 62.8429 and 85.8382 and 64.0091
- β-arrestin2 recruitment response (dose-response source data, replicate values) ([6]; Log[Drug] -6): 3.06 and -0.5319 and 0.7534 and 2.096 and -0.5619 and -0.6198 and -1.437 and 2.573 and 0.749
- β-arrestin2 recruitment response in presence of serotonin (replicate values) ([6]; Log[Drug] -6.52): 70.8253 and 57.3668 and 57.1998 and 54.2043 and 49.8953 and 65.9707 and 67.8605 and 93.5331 and 78.9014
- β-arrestin2 recruitment response (dose-response source data, replicate values) ([6]; Log[Drug] -6.52): -0.8494 and -0.7143 and 0.1419 and 1.691 and -0.2222 and -0.8824 and 6.685 and 2.505 and 2.238
- β-arrestin2 recruitment response in presence of serotonin (replicate values) ([6]; Log[Drug] -7): 78.7809 and 65.1211 and 66.7181 and 78.276 and 64.6889 and 65.4492 and 69.2492 and 67.696 and 63.7064
- β-arrestin2 recruitment response (dose-response source data, replicate values) ([6]; Log[Drug] -7): -1.487 and -0.5714 and -1.709 and 1.211 and 0.5059 and 0.1139 and 0.4054 and 1.8599 and -0.4067
- β-arrestin2 recruitment response in presence of serotonin (replicate values) ([6]; Log[Drug] -7.52): 60.5159 and 63.0454 and 62.4237 and 65.5364 and 59.1349 and 50.606 and 95.9761 and 69.8099 and 82.5107
- β-arrestin2 recruitment response (dose-response source data, replicate values) ([6]; Log[Drug] -7.52): 4.965 and 0.04923 and -3.23 and 2.115 and 1.39 and -0.6014 and 1.1728 and 0.6792 and -0.974
